According to paper PMC5693770 (Cell chemical biology, 2017):
Blank lines part the entries; values can stand above or below the compound they belong to.

Key:
PPP2R1A [1] = target: T1, PPP2R1A (Homo sapiens, UniProt P30153); assay: gel-based ABPP, competition with IAyne labeling; type: binding
PPP2R1A [2] = target: T1, PPP2R1A; assay: gel-based ABPP, competition with IAyne labeling of pure protein; type: binding
TXNDC17 = target: T2, TXNDC17 (Homo sapiens, UniProt Q9BRA2); assay: in situ competitive isoTOP-ABPP in […]MFP cells, light to heavy ratio […]; type: cell-based
T2 sequence (Q9BRA2 2-123): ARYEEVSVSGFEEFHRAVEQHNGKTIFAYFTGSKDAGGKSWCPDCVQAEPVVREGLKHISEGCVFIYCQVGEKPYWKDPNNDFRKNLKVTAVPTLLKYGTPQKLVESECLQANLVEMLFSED

CLIC4 = CLIC4 (Homo sapiens, UniProt Q9Y696); assay: as above; type: cell-based
PPP2R1A [3] = target: T1, PPP2R1A; assay: gel-based ABPP, competition with IAyne labeling of pure protein; type: binding; remark: listed apart in the source
SCP2 = target: T3, SCP2 (Homo sapiens, UniProt P22307); assay: in situ competitive isoTOP-ABPP in […]MFP cells, light to heavy ratio […]; type: cell-based
T3 sequence (P22307 1-547): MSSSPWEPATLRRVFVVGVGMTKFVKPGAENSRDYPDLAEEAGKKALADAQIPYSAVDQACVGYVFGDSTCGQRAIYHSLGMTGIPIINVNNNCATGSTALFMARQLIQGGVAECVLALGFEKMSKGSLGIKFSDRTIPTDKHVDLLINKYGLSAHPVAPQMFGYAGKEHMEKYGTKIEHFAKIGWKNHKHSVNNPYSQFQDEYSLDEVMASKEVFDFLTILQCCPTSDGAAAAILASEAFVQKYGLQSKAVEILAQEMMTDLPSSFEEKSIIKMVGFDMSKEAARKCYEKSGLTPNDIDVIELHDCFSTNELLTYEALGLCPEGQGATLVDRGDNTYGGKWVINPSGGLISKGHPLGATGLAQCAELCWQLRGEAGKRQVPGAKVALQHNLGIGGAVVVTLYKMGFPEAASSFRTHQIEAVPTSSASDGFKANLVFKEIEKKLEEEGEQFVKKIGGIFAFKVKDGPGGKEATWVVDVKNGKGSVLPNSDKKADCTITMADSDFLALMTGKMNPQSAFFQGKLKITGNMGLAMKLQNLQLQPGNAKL

ACAT1 = target: T4, ACAT1 (Homo sapiens, UniProt P24752); assay: as above; type: cell-based
T4 sequence (P24752 34-427): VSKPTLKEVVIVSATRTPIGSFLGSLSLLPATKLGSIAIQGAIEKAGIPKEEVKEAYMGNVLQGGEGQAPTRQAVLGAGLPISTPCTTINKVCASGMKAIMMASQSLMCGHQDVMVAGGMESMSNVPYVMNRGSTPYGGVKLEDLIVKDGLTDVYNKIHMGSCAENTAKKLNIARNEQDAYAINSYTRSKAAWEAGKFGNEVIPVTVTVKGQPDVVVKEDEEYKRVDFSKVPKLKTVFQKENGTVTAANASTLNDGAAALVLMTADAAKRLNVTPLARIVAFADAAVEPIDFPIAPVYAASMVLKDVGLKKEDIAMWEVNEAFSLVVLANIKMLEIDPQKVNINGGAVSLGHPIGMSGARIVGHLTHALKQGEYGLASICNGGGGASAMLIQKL

T1 sequence (P30153 2-589): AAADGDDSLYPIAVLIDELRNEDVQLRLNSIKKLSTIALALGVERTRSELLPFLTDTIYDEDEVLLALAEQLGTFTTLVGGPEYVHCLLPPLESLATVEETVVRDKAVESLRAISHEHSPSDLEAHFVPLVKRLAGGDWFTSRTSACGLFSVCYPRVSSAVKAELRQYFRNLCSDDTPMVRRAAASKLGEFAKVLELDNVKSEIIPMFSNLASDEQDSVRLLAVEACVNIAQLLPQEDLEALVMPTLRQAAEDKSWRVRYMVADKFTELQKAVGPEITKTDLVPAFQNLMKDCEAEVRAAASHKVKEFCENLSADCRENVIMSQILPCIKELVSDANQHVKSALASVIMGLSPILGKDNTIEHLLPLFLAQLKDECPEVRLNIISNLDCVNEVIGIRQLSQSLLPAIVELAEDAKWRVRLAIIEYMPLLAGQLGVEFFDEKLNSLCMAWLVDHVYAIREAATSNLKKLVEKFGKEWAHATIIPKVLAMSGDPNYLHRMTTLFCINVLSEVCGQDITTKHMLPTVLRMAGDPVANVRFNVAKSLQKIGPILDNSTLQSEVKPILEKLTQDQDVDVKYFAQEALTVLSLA
Sequence of CLIC4 (Q9Y696 2-253): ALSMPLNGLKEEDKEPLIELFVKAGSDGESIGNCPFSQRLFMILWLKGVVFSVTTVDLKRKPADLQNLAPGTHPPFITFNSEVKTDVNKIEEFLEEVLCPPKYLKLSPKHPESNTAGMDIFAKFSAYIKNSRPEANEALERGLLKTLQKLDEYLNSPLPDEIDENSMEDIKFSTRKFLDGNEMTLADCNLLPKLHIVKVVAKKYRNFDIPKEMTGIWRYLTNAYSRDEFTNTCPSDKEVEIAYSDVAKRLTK

IC50 (PPP2R1A [1]): 300 µM
Compound: O=C(CCl)Nc1ccc2c(c1)CCCC2 [JNS 1-37]

IC50 (PPP2R1A [2]): 0.63 µM
Compound: O=C(CCl)N(Cc1ccccc1)c1ccc2c(c1)OCCO2 [JNS 1-40]

in situ competitive isoTOP-ABPP in 231MFP cells, light to heavy ratio >5 (TXNDC17): > 5 light to heavy ratio | in situ competitive isoTOP-ABPP in 231MFP cells, light to heavy ratio >5 (CLIC4): > 5 light to heavy ratio | IC50 (PPP2R1A [3]): 10 µM | in situ competitive isoTOP-ABPP in 231MFP cells, light to heavy ratio >5 (SCP2): > 5 light to heavy ratio | in situ competitive isoTOP-ABPP in 231MFP cells, light to heavy ratio >5 (ACAT1): > 5 light to heavy ratio
Compound: DKM 2-90
